Data: ChEMBL document CHEMBL1201862, “PubChem BioAssay data set” (2004)
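Following 48 hours of exposure in 96-well plates, responses at five concentrations were used to interpolate endpoints linearly. At the GI50, growth is halved.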 Activity calls are given as the source filed them. Rule as the data show it: active = GI50 up to about 1.1 µM and inactive = higher.

Columns and labels:
Experiment in all cases: NCI tumour cell line growth inhibition, 48 h
SK-OV-3 = test system: SK-OV-3
SF-268 = test system: SF-268
M19-MEL = test system: M19-MEL
SN12C = test system: SN12C
Malme-3M = test system: Malme-3M
SK-MEL-5 = test system: SK-MEL-5
K562 = test system: K562
NCI-H460 = test system: NCI-H460
DMS-273 = test system: DMS-273
HCC 2998 = test system: HCC 2998
TK-10 = test system: TK-10
LOX IMVI = test system: LOX IMVI
HL-60 = test system: HL-60
HOP-92 = test system: HOP-92
COLO 205 = test system: COLO 205
UO-31 = test system: UO-31
HOP-62 = test system: HOP-62
OVCAR-5 = test system: OVCAR-5
NCI-H522 = test system: NCI-H522
IGROV-1 = test system: IGROV-1
HT-29 = test system: HT-29
SK-MEL-2 = test system: SK-MEL-2
HOP-18 = test system: HOP-18
RPMI-8226 = test system: RPMI-8226
XF498 = test system: XF498
SF-295 = test system: SF-295
KM-20L2 = test system: KM-20L2
OVCAR-8 = test system: OVCAR-8
U-251 = test system: U-251
SNB-75 = test system: SNB-75
SNB-78 = test system: SNB-78
M14 = test system: M14
A498 = test system: A498
ACHN = test system: ACHN
NCI-H23 = test system: NCI-H23
786-0 = test system: 786-0
HCT-15 = test system: HCT-15
RXF 393 = test system: RXF 393
A549 = test system: A549
HCT-116 = test system: HCT-116
UACC-257 = test system: UACC-257
CCRF-CEM = test system: CCRF-CEM
DLD-1 = test system: DLD-1
KM12 = test system: KM12
OVCAR-4 = test system: OVCAR-4
SNB-19 = test system: SNB-19
NCI-H226 = test system: NCI-H226
OVCAR-3 = test system: OVCAR-3
SF-539 = test system: SF-539
EKVX = test system: EKVX
DMS-114 = test system: DMS-114
SK-MEL-28 = test system: SK-MEL-28
UACC-62 = test system: UACC-62
CAKI-1 = test system: CAKI-1
SR = test system: SR
LXFL 529 = test system: LXFL 529
SW-620 = test system: SW-620
MOLT-4 = test system: MOLT-4

Measured: GI50

O=C1c2ccoc2C(=O)c2oc(=O)ccc21
inactive: SK-OV-3 30.1 µM | SF-268 9.14 µM | M19-MEL 1.56 µM | SN12C 11.1 µM | Malme-3M 3.16 µM | SK-MEL-5 1.7 µM | K562 6.46 µM | NCI-H460 18.7 µM | DMS-273 16.8 µM | HCC 2998 > 45.3 µM | TK-10 > 45.1 µM | LOX IMVI 2.88 µM | HL-60 2.32 µM | HOP-92 21.6 µM | COLO 205 > 41.2 µM | UO-31 7.43 µM | HOP-62 > 46.1 µM | OVCAR-5 19.7 µM | NCI-H522 1.86 µM | IGROV-1 19.6 µM | HT-29 36.4 µM | SK-MEL-2 6.59 µM | HOP-18 21.6 µM | RPMI-8226 3.67 µM | XF498 25.3 µM | SF-295 17.5 µM | KM-20L2 > 46.1 µM | OVCAR-8 6.35 µM | U-251 8.15 µM | SNB-75 6.41 µM | SNB-78 12.2 µM | M14 7.82 µM | A498 > 59.3 µM | ACHN 2.86 µM | NCI-H23 2 µM | 786-0 16.8 µM | RXF 393 5.86 µM | A549 20.3 µM | HCT-116 5.31 µM | UACC-257 7.33 µM | CCRF-CEM 5.57 µM | DLD-1 18.7 µM | KM12 > 42 µM | OVCAR-4 5.13 µM | SNB-19 16 µM | NCI-H226 > 42.6 µM | OVCAR-3 3.36 µM | SF-539 3.45 µM | EKVX 20.8 µM | DMS-114 2.05 µM | SK-MEL-28 5.43 µM | UACC-62 17.1 µM | CAKI-1 > 45 µM | SR 1.43 µM | LXFL 529 6.75 µM | SW-620 4.23 µM
12 µM: HCT-15

O=c1c2cc(Br)ccc2n(C2OC(CO)C(O)C(O)C2O)c(=S)n1-c1ccccc1 (stereo not drawn)
> 100 µM: HCT-15
inactive: SF-268 > 100 µM | M19-MEL > 100 µM | SN12C > 100 µM | Malme-3M > 100 µM | K562 > 100 µM | NCI-H460 > 100 µM | HCC 2998 > 100 µM | TK-10 > 100 µM | LOX IMVI > 100 µM | HL-60 > 100 µM | HOP-92 98.2 µM | COLO 205 > 100 µM | UO-31 > 100 µM | HOP-62 > 100 µM | OVCAR-5 > 100 µM | NCI-H522 > 100 µM | IGROV-1 > 100 µM | HT-29 > 100 µM | SK-MEL-2 > 100 µM | HOP-18 > 100 µM | RPMI-8226 > 100 µM | XF498 50.5 µM | SF-295 > 100 µM | KM-20L2 > 100 µM | OVCAR-8 > 100 µM | U-251 > 100 µM | SNB-75 68.1 µM | SNB-78 > 100 µM | A498 > 100 µM | ACHN > 100 µM | NCI-H23 > 100 µM | 786-0 82.4 µM | RXF 393 > 100 µM | A549 > 100 µM | MOLT-4 86.7 µM | HCT-116 > 100 µM | UACC-257 > 100 µM | DLD-1 > 100 µM | KM12 > 100 µM | OVCAR-4 > 100 µM | SNB-19 > 100 µM | NCI-H226 > 100 µM | OVCAR-3 > 100 µM | SF-539 > 100 µM | EKVX > 100 µM | DMS-114 > 100 µM | SK-MEL-28 > 100 µM | SR 73.3 µM | LXFL 529 74.3 µM | SW-620 > 100 µM
